This note sets out measurements from patent US20260265220A1, “GALPHA12 INHIBITORS AND METHODS USING SAME” (RUTGERS, THE STATE UNIVERSITY OF NEW JERSEY, priority 2022, published 2026).

Test [1] relates to AKT phosphorylation (pAKT). Put plainly: Immunoblot analysis of AKT phosphorylation (pAKT) in airway smooth muscle cells. The note with it: compound at 100 μM (FIGS. 4A-4B). In kind it is cell-based, human. As to the method: Compounds 1-3 were evaluated for inhibition of AKT and MLC phosphorylation. As described elsewhere herein, phosphorylation of AKT and/or MLC can occur with activation of the Gα12 pathway. Accordingly, in certain embodiments, detection of a decrease in pAKT and/or pMLC indicates inhibition of Gα12.
The immunoblot analysis of phosphorylation of myosin light chain (pMLC) was used as a surrogate for ASM contraction. In parallel, phosphorylation of AKT was analogously assessed. AKT is a downstream substrate for phosphoinositide 3-kinase (PI3K) activity, can modulate the activation of the Gα12 pathway in primary human airway smooth muscle cells. These cells are the pivotal cells regulating bronchomotor tone in asthma and chronic obstructive pulmonary disease (COPD) which is emphysema or chronic bronchitis.
The analogues described herein were further assessed for potency and efficacy in inhibiting AKT and pMLC phosphorylation induced by contractile agonists, carbachol, or histamine. These contractile agonists are pivotal in causing airway smooth muscle contraction and airway obstruction in asthma and COPD.

The target in the next test is T1, MAPKAP-K2(h) (Homo sapiens, UniProt P49137).
T1 construct: purchased Eurofins
The test is described as follows: Eurofins in vitro kinase activity assay. In kind it is biochemical. As to the method:
(§1) Using the Eurofins™ platform, a kinase activity assay was performed to identify human kinases inhibited by compound 1. To determine the effects of the compound on kinase activity, varying concentrations of compound 1 (1, 10 and 100 μM) were used with one technical replicate in a standard in vitro kinase activation assay.
(§2) This platform was used to determine the effects of compound 1 on the activity of 113 unique human kinases. Thresholds for kinase activity of interest was set at less than or equal to 60% […] (i.e., for antagonists) or enhanced activity at or above 140% (i.e., for agonists). Further, the validity of the results were confirmed by the occurrence of a dose-dependent response.

The target in another test is T2, IGF-1R(h) (Homo sapiens, UniProt P08069).
T2 construct: purchased Eurofins
Put plainly: Eurofins in vitro kinase activity assay. Particulars: read-out: IGF-1R(h) kinase activity (human kinase inhibition data). In kind it is biochemical. As to the method: as §1, §2

The target in another test is T3, TrkA(h) (Homo sapiens, UniProt P04629).
T3 construct: purchased Eurofins
The test is described as follows: Eurofins in vitro kinase activity assay. In kind it is biochemical. Particulars: read-out: TrkA(h) kinase activity (human kinase inhibition data). The protocol:
as §1, §2

In a further test the test system is 113 unique human kinases. Put plainly: Eurofins kinase activity panel. In kind it is biochemical. Particulars: 1, 10 and 100 μM. As to the method:
as §1, §2

T2 sequence (P08069 31-1367): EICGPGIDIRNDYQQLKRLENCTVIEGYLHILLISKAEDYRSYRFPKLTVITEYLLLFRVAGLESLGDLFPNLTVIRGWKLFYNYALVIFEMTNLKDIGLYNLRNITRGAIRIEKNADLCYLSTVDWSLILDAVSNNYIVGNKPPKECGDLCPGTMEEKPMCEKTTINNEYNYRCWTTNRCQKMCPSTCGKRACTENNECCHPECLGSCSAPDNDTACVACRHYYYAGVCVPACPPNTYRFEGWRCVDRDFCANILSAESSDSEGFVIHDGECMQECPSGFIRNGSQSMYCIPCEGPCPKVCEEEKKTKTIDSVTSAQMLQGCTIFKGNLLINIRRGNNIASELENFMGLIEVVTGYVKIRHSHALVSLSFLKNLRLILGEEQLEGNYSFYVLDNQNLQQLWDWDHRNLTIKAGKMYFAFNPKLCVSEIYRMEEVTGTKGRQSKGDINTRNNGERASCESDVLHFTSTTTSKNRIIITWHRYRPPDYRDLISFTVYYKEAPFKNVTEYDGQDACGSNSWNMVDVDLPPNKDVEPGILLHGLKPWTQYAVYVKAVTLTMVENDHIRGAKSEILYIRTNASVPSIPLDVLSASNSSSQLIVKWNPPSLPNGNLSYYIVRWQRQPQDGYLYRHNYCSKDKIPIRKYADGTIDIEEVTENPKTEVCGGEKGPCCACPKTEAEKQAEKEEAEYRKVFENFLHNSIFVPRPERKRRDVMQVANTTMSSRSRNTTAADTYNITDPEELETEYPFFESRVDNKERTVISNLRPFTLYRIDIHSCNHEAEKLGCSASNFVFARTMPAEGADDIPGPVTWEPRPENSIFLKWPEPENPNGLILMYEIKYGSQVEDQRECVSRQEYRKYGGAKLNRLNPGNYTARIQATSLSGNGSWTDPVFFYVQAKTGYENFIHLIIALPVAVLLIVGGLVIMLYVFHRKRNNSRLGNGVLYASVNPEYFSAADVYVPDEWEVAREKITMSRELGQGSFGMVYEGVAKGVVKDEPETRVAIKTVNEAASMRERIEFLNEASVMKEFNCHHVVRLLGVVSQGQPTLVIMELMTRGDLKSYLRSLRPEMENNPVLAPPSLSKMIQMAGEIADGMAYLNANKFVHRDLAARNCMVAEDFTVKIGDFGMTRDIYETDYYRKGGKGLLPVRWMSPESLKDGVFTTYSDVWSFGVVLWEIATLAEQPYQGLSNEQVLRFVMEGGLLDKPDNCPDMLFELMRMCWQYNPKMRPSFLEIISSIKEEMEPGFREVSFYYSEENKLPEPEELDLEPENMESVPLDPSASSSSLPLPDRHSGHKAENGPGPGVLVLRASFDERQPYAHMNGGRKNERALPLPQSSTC
T3 sequence (P04629 33-796): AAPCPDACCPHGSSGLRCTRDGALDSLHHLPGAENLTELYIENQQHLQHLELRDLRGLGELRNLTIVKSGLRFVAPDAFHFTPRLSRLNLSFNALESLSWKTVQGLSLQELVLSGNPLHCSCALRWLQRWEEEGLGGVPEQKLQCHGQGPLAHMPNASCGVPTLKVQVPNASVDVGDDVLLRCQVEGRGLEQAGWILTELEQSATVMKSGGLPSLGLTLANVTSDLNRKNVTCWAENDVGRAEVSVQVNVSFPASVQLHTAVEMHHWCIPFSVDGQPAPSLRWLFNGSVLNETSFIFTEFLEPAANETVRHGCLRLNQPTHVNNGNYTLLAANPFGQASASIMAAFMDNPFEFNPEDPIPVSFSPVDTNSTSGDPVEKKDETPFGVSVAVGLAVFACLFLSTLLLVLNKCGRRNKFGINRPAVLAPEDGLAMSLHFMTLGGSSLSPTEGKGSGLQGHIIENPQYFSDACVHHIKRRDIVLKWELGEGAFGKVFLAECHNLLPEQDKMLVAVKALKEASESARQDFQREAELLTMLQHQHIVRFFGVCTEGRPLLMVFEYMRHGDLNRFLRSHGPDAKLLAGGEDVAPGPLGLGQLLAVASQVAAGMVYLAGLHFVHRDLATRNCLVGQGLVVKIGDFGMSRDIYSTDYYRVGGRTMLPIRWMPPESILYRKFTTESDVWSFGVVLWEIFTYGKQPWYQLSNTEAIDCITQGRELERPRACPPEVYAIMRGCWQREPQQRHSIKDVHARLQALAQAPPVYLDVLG
T1 sequence (P49137 whole entry): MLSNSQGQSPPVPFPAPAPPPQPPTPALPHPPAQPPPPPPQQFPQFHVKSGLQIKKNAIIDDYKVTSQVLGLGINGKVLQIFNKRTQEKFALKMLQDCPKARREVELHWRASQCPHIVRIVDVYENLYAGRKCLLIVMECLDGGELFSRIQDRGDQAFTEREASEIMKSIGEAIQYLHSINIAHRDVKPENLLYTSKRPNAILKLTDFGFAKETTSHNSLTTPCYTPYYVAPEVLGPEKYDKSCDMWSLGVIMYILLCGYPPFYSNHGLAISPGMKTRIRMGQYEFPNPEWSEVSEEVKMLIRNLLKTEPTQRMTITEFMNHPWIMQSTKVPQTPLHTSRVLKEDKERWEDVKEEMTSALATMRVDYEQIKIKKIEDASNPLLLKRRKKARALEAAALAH

For `O=C(CCn1ncc2ccccc21)N1CCOC(c2ccc(Cc3ccc(F)cc3)cn2)C1` (centres unmarked) [compound 1, 1-(2-(5-(4-fluorobenzyl)pyridin-2-yl)morpholino)-3-(1H-indazol-1-yl)propan-1-one], the pAKT entry in test [1] was “decreased”. In addition, the “MAPKAP-K2 inhibition, dose dependence” value on MAPKAP-K2(h) (1, 10 and 100 μM) is recorded as “inhibited in a dose-dependent manner”. In addition, the activity at 1 µM is 90% at MAPKAP-K2(h) (compound at 1 μM, read-out: MAPKAP-K2(h) kinase activity (human kinase inhibition data)); 103% on IGF-1R(h) (compound at 1 μM); 106% at TrkA(h) (compound at 1 μM). The activity at 10 µM on MAPKAP-K2(h) (compound at 10 μM, read-out: MAPKAP-K2(h) kinase activity (human kinase inhibition data)) is 77%; at IGF-1R(h) (compound at 10 μM), 91%; at TrkA(h) (compound at 10 μM) it was 123%. For the same compound, the activity at 100 µM on MAPKAP-K2(h) (compound at 100 μM, read-out: MAPKAP-K2(h) kinase activity (human kinase inhibition data)) was found to be 65%; on IGF-1R(h) (compound at 100 μM) it was 61%; on TrkA(h) (compound at 100 μM) it was 41%. Moreover, the “specificity: effect on the overwhelming majority of the 113 human kinases” value in the test on 113 unique human kinases is listed as “little to no effect”. In addition, the “number of kinases exhibiting dose dependent inhibition” value with 113 unique human kinases (of 113 human kinases) is 7. The “number of kinases with agonism observed” value in the test on 113 unique human kinases (of 113 human kinases, none relevant in human airway smooth muscle) was 4.
